ChEMBL document CHEMBL4311957, “Recent advances in natural antifungal flavonoids and their derivatives” (Bioorg Med Chem Lett, 2019)
Values after ≈ are worked out from the molar mass of the structure shown.

Assays:
[1] = Inhibition of fatty acid synthase in Trichophyton rubrum ATCC MYA3108
Trichophyton rubrum [2] = assay: Antifungal activity against Trichophyton rubrum ATCC MYA3108 by CLSI-based microdilution method; type: functional
Trichophyton rubrum [3] = assay: Antifungal activity against Trichophyton rubrum deltaTruMDR2 by CLSI-based microdilution method; type: functional
[4] = Inhibition of fatty acid synthase in Trichophyton rubrum deltaTruMDR2
Candida parapsilosis [5] = assay: Antifungal activity against Candida parapsilosis ATCC 22019 by ELISA; type: functional; conditions: Lodderomyces parapsilosis
Trichosporon beigelii = assay: Antifungal activity against Trichosporon beigelii KCTC 7707 by ELISA; type: functional
Trichophyton rubrum [6] = assay: Antifungal activity against Trichophyton rubrum KCTC 6345 by ELISA; type: functional
Candida albicans [7] = assay: Antifungal activity against Candida albicans ATCC 90028 by ELISA; type: functional
Malassezia furfur = assay: Antifungal activity against Malassezia furfur KCTC 7744 by ELISA; type: functional
Cryptococcus neoformans [8] = assay: Antifungal activity against Cryptococcus neoformans ATCC 90112 after 48 hrs in presence of AmB by CLSI-based method; type: functional; conditions: ATCC 90112, 48 h
Cryptococcus neoformans [9] = assay: Antifungal activity against Cryptococcus neoformans ATCC 90112 after 48 hrs by CLSI-based method; type: functional; conditions: ATCC 90112, 48 h
Candida albicans [10] = assay: Antifungal activity against Candida albicans; type: functional, organism-based
Trichophyton = assay: Antifungal activity against Trichophyton; type: functional
Aspergillus fumigatus [11] = assay: Antifungal activity against Aspergillus fumigatus; type: functional
Candida albicans [12] = assay: Antifungal activity against Candida albicans ATCC 44859 after 24 to 48 hrs; type: functional
Candida parapsilosis [13] = assay: Antifungal activity against Candida parapsilosis ATCC 22019 after 18 hrs by two-fold microdilution method; type: functional; conditions: Lodderomyces parapsilosis, ATCC 22019, 18 h
Nakaseomyces glabratus [14] = assay: Antifungal activity against Candida glabrata ATCC 90030 after 18 hrs by two-fold microdilution method; type: functional; conditions: ATCC 90030, 18 h
Pichia kudriavzevii = assay: Antifungal activity against Candida krusei ATCC 6258 after 18 hrs by two-fold microdilution method; type: functional; conditions: ATCC 6258, 18 h
Candida albicans [15] = assay: Antifungal activity against Candida albicans ATCC 90028 after 18 hrs by two-fold microdilution method; type: functional; conditions: ATCC 90028, 18 h
Cryptococcus neoformans [16] = assay: Fungicidal activity against Cryptococcus neoformans clinical isolate after 48 hrs; type: functional
Cryptococcus neoformans [17] = assay: Fungicidal activity against Cryptococcus neoformans ATCC 32264 after 48 hrs; type: functional; conditions: ATCC 32264, 48 h
Aspergillus niger = assay: Fungicidal activity against Aspergillus niger ATCC 9029 after 48 hrs; type: functional; conditions: ATCC 9029, 48 h
[18] = system: Trichophyton mentagrophytes; assay: Fungicidal activity against Trichophyton mentagrophytes ATCC 9972 after 48 hrs; type: functional; conditions: ATCC 9972, 48 h
Aspergillus flavus = assay: Fungicidal activity against Aspergillus flavus ATCC 9170 after 48 hrs; type: functional; conditions: ATCC 9170, 48 h
Candida albicans [19] = assay: Fungicidal activity against Candida albicans ATCC 10231 after 48 hrs; type: functional; conditions: ATCC 10231, 48 h
Aspergillus fumigatus [20] = assay: Fungicidal activity against Aspergillus fumigatus ATTC 26934 after 48 hrs; type: functional; conditions: ATTC 26934, 48 h
Nannizzia gypsea = assay: Fungicidal activity against Microsporum gypseum CCC 115 after 48 hrs; type: functional; conditions: CCC 115, 48 h
Saccharomyces cerevisiae = assay: Fungicidal activity against Saccharomyces cerevisiae ATCC 9763 after 48 hrs; type: functional; conditions: ATCC 9763, 48 h
Trichophyton rubrum [21] = assay: Fungicidal activity against Trichophyton rubrum CCC 110 after 48 hrs; type: functional; conditions: CCC 110, 48 h
Candida albicans [22] = assay: Antifungal activity against Candida albicans clinical isolates after 48 hrs by checkerboard method; type: functional
Nakaseomyces glabratus [23] = assay: Antifungal activity against Candida glabrata after 48 hrs by checkerboard method; type: functional
Candida albicans [24] = assay: Antifungal activity against Candida albicans SC 5314 after 48 hrs by checkerboard method; type: functional; conditions: SC 5314, 48 h

O=C(/C=C/c1ccccc1)c1ccccc1 [CHALCONE] showed an IC50 [1] of 68.23 µg/mL (≈ 328 µM), an MIC (Trichophyton rubrum [2]) of 7.5 µg/mL (≈ 36 µM) and an MIC (Trichophyton rubrum [3]) of 1.9 µg/mL (≈ 9.12 µM). It also gave an IC50 [4] of 17.1 µg/mL (≈ 82.1 µM).

In the case of O=c1c(O[C@@H]2O[C@H](CO)[C@@H](O)[C@H](O)[C@H]2O)c(-c2ccc(O)c(O)c2)oc2cc(O)cc(O)c12 [ISOQUERCETIN], the MIC (Candida parapsilosis [5]) is reported as 2.5 µg/mL (≈ 5.38 µM), the MIC (Trichosporon beigelii) is reported as 5 µg/mL (≈ 10.8 µM) and the MIC (Trichophyton rubrum [6]) is reported as 2.5 µg/mL (≈ 5.38 µM). It also gave an MIC (Candida albicans [7]) of 2.5 µg/mL (≈ 5.38 µM) and an MIC (Malassezia furfur) of 2.5 to 5 µg/mL (≈ 5.38 to 10.8 µM).

With COc1cc2oc(-c3ccc(O)c(O)c3)cc(=O)c2c(O)c1O the MIC (Cryptococcus neoformans [8]) was 1 µg/mL and the MIC (Cryptococcus neoformans [9]) was 3.9 µg/mL (≈ 12.3 µM).

For Cc1c(O)c2c(c3c1OC(C)(C)C=C3)O[C@H](c1ccc(O)c(O)c1)CC2=O, the MIC (Candida albicans [10]) was 1.96 µg/mL (≈ 5.32 µM) and the MIC (Trichophyton) was 1.95 µg/mL (≈ 5.29 µM).

Work on OC(Cn1cncn1)(Cn1cncn1)c1ccc(F)cc1F [FLUCONAZOLE] yielded an IC50 [1] of 68.23 µg/mL (≈ 223 µM), an MIC (Aspergillus fumigatus [11]) of 125 µg/mL (≈ 408 µM) and an MIC (Trichophyton rubrum [2]) of 63 µg/mL (≈ 206 µM). For the same compound, the MIC (Candida albicans [10]) was 5.1 to 62.5 µg/mL (≈ 16.7 to 204 µM), the MIC (Trichophyton rubrum [3]) was 63 µg/mL (≈ 206 µM) and the MIC (Candida albicans [12]) was 10.2 µM (≈ 3.12 µg/mL).

For CC1(C)C=Cc2c(cc(O)c3c(=O)c(-c4ccc(O)cc4)coc23)O1 [DERRONE], the MIC (Candida parapsilosis [13]) was 7.81 µg/mL (≈ 23.2 µM), the MIC (Nakaseomyces glabratus [14]) was 7.81 µg/mL (≈ 23.2 µM) and the MIC (Pichia kudriavzevii) was 7.81 µg/mL (≈ 23.2 µM). It also gave an MIC (Candida albicans [15]) of 7.81 µg/mL (≈ 23.2 µM).

With C[C@@H]1[C@H](O)[C@@H](C)/C=C/C=C/C=C/C=C/C=C/C=C/C=C/[C@H](O[C@@H]2O[C@H](C)[C@@H](O)[C@H](N)[C@@H]2O)C[C@@H]2O[C@](O)(C[C@@H](O)C[C@@H](O)[C@H](O)CC[C@@H](O)C[C@@H](O)CC(=O)O[C@H]1C)C[C@H](O)[C@H]2C(=O)O [AMPHOTERICIN B] the MIC (Cryptococcus neoformans [9]) was 0.03 µg/mL (≈ 0.0325 µM).

In the case of CN(C)CCCOc1cc(/C=C/C(=O)c2ccc(Cl)cc2)ccc1O, the MFC (Cryptococcus neoformans [16]) is reported as 31.2 µg/mL (≈ 86.8 µM), the MFC (Cryptococcus neoformans [17]) is reported as 31.2 µg/mL (≈ 86.8 µM) and the MFC (Aspergillus niger) is reported as 31.2 µg/mL (≈ 86.8 µM). For the same compound, the MFC [18] was 31.2 µg/mL (≈ 86.8 µM), the MFC (Aspergillus flavus) was 31.2 µg/mL (≈ 86.8 µM) and the MFC (Candida albicans [19]) was 31.2 µg/mL (≈ 86.8 µM). It also gave an MFC (Aspergillus fumigatus [20]) of 31.2 µg/mL (≈ 86.8 µM), an MFC (Nannizzia gypsea) of 31.2 µg/mL (≈ 86.8 µM) and an MFC (Saccharomyces cerevisiae) of 31.2 µg/mL (≈ 86.8 µM). The MFC (Trichophyton rubrum [21]) was 31.2 µg/mL (≈ 86.8 µM).

With O=C(O)[C@H]1O[C@@H](Oc2cc3oc(-c4ccccc4)cc(=O)c3c(O)c2O)[C@H](O)[C@@H](O)[C@@H]1O [BAICALIN] the MIC (Candida albicans [22]) was 500 µg/mL, the MIC (Nakaseomyces glabratus [23]) was 250 µg/mL and the MIC (Candida albicans [24]) was 500 µg/mL.
